Data reported in PMC11018795, “The regulatory relationship between NAMPT and PD-L1 in cancer and identification of a dual-targeting inhibitor” (EMBO Molecular Medicine, 2024).
Several values for one entry are separate records, joined by “and”; a condition that tells them apart may be missing. Identical values can stand only once.

Legend:
[1] = test system: LLC cells; experiment: Apoptosis assay (Annexin V/PI), LLC; assay type: cell-based, mouse
Description: The cells are treated with the compounds. After 48–72 h, the cells were harvested and washed twice with cold PBS. The cells were then stained with Annexin V/propidium iodide (PI) (BD Biosciences) and examined using a NovoCyte Flow Cytometer (ACEA Biosciences). Data were analyzed using NovoExpress software (ACEA Biosciences).

[2] = test system: LLC OE PD-L1 cells co-cultured with T cells; experiment: T cell-mediated tumor cell killing assay, LLC OE PD-L1; assay type: cell-based; conditions: Mus musculus, 100 nM, read-out: inhibition rate (T cell-mediated killing)
Description: To acquire activated T cells, human peripheral blood mononuclear cells (PBMC; LTS1077, Yanjin Biological) were cultured in CTSTM AIIM VTM SFM (A3021002; Gibco) with ImmunoCult Human CD3/CD28/CD2 T-cell activator (25 µL/mL; […] Technologies, Cat#10970) for 48 h according to the manufacturer’s protocol. The experiments were performed using mouse anti-CD3 antibody (1 µg/mL; Thermo Scientific, 16-0032-82) and anti-CD28 antibody(5 µg/mL; Thermo Scientific, 16-0281-82). Cancer cells were allowed to adhere to the plates overnight and then incubated for 48 h with activated T cells in the presence or absence of DX ([…]). Different proportions of cancer cells and activated T cells were utilized according to the purpose of each experiment. The T-cell proliferation assay was 1:3; the T-cell killing assay was 1:10; T cells and cell debris were removed by PBS washing, and the living cancer cells were then quantified by a spectrometer at OD (570 nm) followed by crystal violet staining. page 12: Fig 3: […] expression patterns. […] Data was obtained from the TCGA database. (B) T cell-mediated tumor cell killing assay. T cells were co-cultured with LLC Vector, […] CQ-85, or BMS202. […] stained by crystal violet. The relative added value of activated T cells is shown below. Data are presented as mean ± SEM; *P < 0.05, **P < 0.01, ***P < 0.001, compared with control. n.s., not significant. […]

[3] = test system: HepG2 cells; experiment: MTT assay 48 h, HepG2; assay type: cell-based, human
Description: Cells (5 × 10^3/well) were seeded into a 96-well plate and cultured at 37 °C in a 5% CO2 incubator. […] At the final time point, 10 μl MTT solution (5 mg/ml, Sigma, Burlington, MA, USA) was added to each well and incubated for an additional 4 h at 37 °C in a 5% CO2 incubator. Then,100 μl of DMSO was added to each well and mixed thoroughly. Optical density was measured at 492 nm using a microplate reader (Molecular Devices, San Jose, CA, USA).

[4] = test system: LLC cells; experiment: Clonogenic assay, LLC; assay type: cell-based, mouse; conditions: 9 days
Description: (§1) Cells (3 × 10^2/well) were plated in a six-well plate and the culture medium was replaced every 2 days. After culturing for 7–10 d, the cells were fixed with 4% paraformaldehyde for 15 min, stained with 0.1% crystal violet for 30 min, and imaged and counted.

[5] = test system: A2780 cells; experiment: Clonogenic assay, A2780; assay type: cell-based, human; conditions: 9 days
Description: as §1

[6] = In vitro metabolic stability in human liver microsome; assay type: in vitro ADME
Description: 2) Pharmacokinetics: Human liver microsomal stability assay is widely adopted in the preliminary evaluation for pharmacokinetic properties, reflecting the potential metabolic stability of indicated compounds in the human body. Thus, considering the […]
activity of LZFPN-90, it was further evaluated for potential metabolism in human liver microsome. The intrinsic clearance for LZFPN-90 in human liver microsome is 0.035 mL/min/mg. According to the classical criteria (Low clearance: CLint < 0.01 mL/min/mg; medium clearance: 0.01 ≤ CLint ≤ 0.1 mL/min/mg; high clearance: CLint > […]
indicating its potential for further development. […]
Table 1. In Vitro Metabolic Stability of LZFPN-90 in Human Liver Microsome T1/2 CLint, in vitro Remaining
(min)a (mL/min/mg)b (T = 60 min) […]
b CLint: intrinsic clearance, CLint(mic)=0.693/T1/2/mg microsomal protein/mL
(1 picture or pasted object on this page, not shown here)

[7] = test system: HCT-116 cells; experiment: Clonogenic assay, HCT-116; assay type: cell-based, human; conditions: 9 days
Description: as §1

[8] = test system: LLC sh PD-L1 cells co-cultured with T cells; experiment: T cell killing assay (colony formation), LLC sh PD-L1; assay type: cell-based; conditions: Mus musculus, 72 h, 100 nM, three days, read-out: inhibition rate of colony formation number
Description: To acquire activated T cells, human peripheral blood mononuclear cells (PBMC; LTS1077, Yanjin Biological) were cultured in CTSTM AIIM VTM SFM (A3021002; Gibco) with ImmunoCult Human CD3/CD28/CD2 T-cell activator (25 μL/mL; […] Technologies, Cat#10970) for 48 h according to the manufacturer's protocol. The experiments were performed using mouse anti-CD3 antibody (1 μg/mL; Thermo Scientific, 16-0032-82) and anti-CD28 antibody(5 μg/mL; Thermo Scientific, 16-0281-82). […] Different proportions of cancer cells and activated T cells were utilized according to the purpose of each experiment. The T-cell proliferation assay was 1:3; the T-cell killing assay was 1:10; T cells and cell debris were removed by PBS washing, and the living cancer cells were then quantified by a spectrometer at OD (570 nm) followed by crystal violet staining. page 28: Fig 8: Effects of LZFPN-90 and NMN on tumor immune microenvironment. […] (C) T cells were co-cultured with LLC cells, and treated with LZFPN-90 (100 nM), and NMN (1 mM) to detect the cell proliferation by T cell killing assay. Data are presented as mean ± SEM; *P < 0.05, **P < 0.01, ***P < 0.001 compared with control. n.s., not significant. (1 picture or pasted object on this page, not shown here)

[9] = biological target: T1, PD-1/PD-L1 interaction (Homo sapiens, UniProt Q9NZQ7); experiment: In vitro PD-1/PD-L1-binding assay (Cisbio kit)
T1 construct: purchased Cisbio 64ICP01PEG
T1 sequence (Q9NZQ7 19-238 limits assumed): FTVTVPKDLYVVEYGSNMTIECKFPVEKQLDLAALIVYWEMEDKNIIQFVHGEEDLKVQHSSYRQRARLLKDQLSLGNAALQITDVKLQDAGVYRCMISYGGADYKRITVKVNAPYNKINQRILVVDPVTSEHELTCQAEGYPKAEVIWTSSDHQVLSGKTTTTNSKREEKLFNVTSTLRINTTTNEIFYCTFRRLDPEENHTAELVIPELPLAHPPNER
Description: The biochemical activity of the final compounds was evaluated using a PD-1/PD-L1 binding assay kit (Cisbio, cat. No. 64ICP01PEG). Experiments were performed according to the manufacturer’s instructions.

CCN(CC)CCCOc1cccc(-c2cccc3c2CCN3C(=O)c2ncc(CNC(=NC#N)Nc3ccncc3)s2)c1 [LZFPN-90]
Apoptotic cells (sum of both Annexin-positive quadrants) ([1]; LZ90 15 nM): 5.3 and 5.6 and 7.76
Apoptotic cells (sum of both Annexin-positive quadrants) ([1]; LZ90 60 nM): 15.11 and 14.38 and 15.17
Apoptotic cells (sum of both Annexin-positive quadrants) ([1]; LZ90 240 nM): 25.37 and 24.61 and 22.88
inhibition at 0.1 µM [2]: ~60%
Relative inhibition (敏感性) [3]: 0.58
Colony formation relative to Ctrl ([4]; LZ90-H (80 nM)): 0.24
Colony formation relative to Ctrl ([4]; LZ90-L (20 nM), Ctrl = 1): 0.68
Colony formation relative to Ctrl ([4]; LZ90-M (40 nM)): 0.53
Colony formation relative to Ctrl ([5]; LZ90-H (2 nM)): 0.01
Colony formation relative to Ctrl ([5]; LZ90-L (0.5 nM), Ctrl = 1): 0.64
Colony formation relative to Ctrl ([5]; LZ90-M (1 nM)): 0.11
stability in human liver microsome ([6]; criteria: low CLint < 0.01, medium 0.01-0.1, high > 0.1 mL/min/mg): moderate stability in human liver microsome
Remaining (T = 60 min) ([6]; human liver microsome): 36.8%
half-life ([6]; liver microsomes, human liver microsome): 39.6 min
microsomal CLint ([6]; liver microsomes, human liver microsome, read-out: CLint, in vitro (intrinsic clearance)): 35 µL/min/mg
Colony formation relative to Ctrl ([7]; LZ90-H (2 nM)): 0.17
Colony formation relative to Ctrl ([7]; LZ90-L (0.5 nM), Ctrl = 1): 0.6
Colony formation relative to Ctrl ([7]; LZ90-M (1 nM)): 0.26
inhibition at 0.1 µM [8]: 21.9%
IC50 [9]: 13 nM
